The source of these data is ChEMBL document CHEMBL5104089, “An update into the medicinal chemistry of translocator protein (TSPO) ligands” (Eur J Med Chem, 2021).

Series [1] deals with T1, Translocator protein (Homo sapiens, UniProt P30536). Description: Inhibition of TSPO receptor (unknown origin).
Series [2] in a line: Binding affinity to CBR (unknown origin). On the set-up: species or system Homo sapiens.
Series [3] concerns the target T2, Translocator protein (Rattus norvegicus, UniProt P16257). Description: Displacement of [3H]-flunitrazepam from TSPO receptor in Wistar rat brain without cerebellum incubated for 90 mins by liquid scintillation counter analysis. Format: tissue-based. In general terms: Loss of bound radioactivity is the signal in a displacement assay; it reports binding, not function.

The target of series [4] is T1, Translocator protein. Description: Inhibition of TSPO (unknown origin) in mouse MA-10 cells assessed as increase in steroid steroidogenesis.
Series [5] is described as follows: Selectivity ratio of Ki for CBR (unknown origin) to Ki for TSPO receptor in Wistar rat brain.
Series [6] in a line: Displacement of [3H]flunitrazepam from CBR receptor in rat brain cerebral cortex by liquid scintillation spectrometer method. Format: tissue-based.
Series [7] concerns the target T1, Translocator protein. Description: Binding affinity to TSPO (unknown origin) relative to control. The settings on record: tested as the 11C-labelled form.
The nature of series [8]: Lipophilicity, logD of the compound. Format: physicochemical. The settings on record: octanol/water.
In series [9] the target is T2, Translocator protein. Description: Displacement of [3H]-PK11195 from TSPO receptor in rat heart microsomes incubated for 15 mins by scintillation method. On the set-up: species or system Microsome.
The target of series [10] is T2, Translocator protein. Description: Displacement of [3H]-Ro54864 from TSPO receptor in rat heart microsomes incubated for 45 mins by scintillation method. Also on record: species or system Microsome.
Series [11] in a line: Displacement of [3H]-Ro51788 from CBR receptor in rat brain microsomes incubated for 60 mins by scintillation method. Also on record: species or system Microsome.
Series [12] in a line: Stability of the compound in human serum assessed as intact compound level measured after 24 hrs by iTLC-SG analysis. Format: ADME, cell-free. The settings on record: read-out: Stability.
Series [13] can be described thus: Stability of the compound assessed as intact compound level measured after 24 hrs by iTLC-SG analysis. The class given is physicochemical. Particulars: read-out: Stability.
In series [14] the target is T2, Translocator protein. Description: Binding affinity to TSPO in Sprague-Dawley rat brain. Format: tissue-based.
Series [15] in a line: Lipophilicity, logD of the compound in 1-octanol and phosphate buffer in pH 7.4 incubated for 3 mins by shake flask method. The class given is physicochemical. Particulars: 1-octanol/phosphate buffer.
Series [16] deals with T2, Translocator protein. Description: Displacement of [3H]-PK11195 from TSPO receptor in Sprague-Dawley rat brain incubated for 30 mins by […] analysis. Format: tissue-based.
Series [17] is described as follows: Lipophilicity, logD of the compound in 1-octanol and phosphate buffer in pH 7.4 incubated for 3 mins. Format: physicochemical. Particulars: 1-octanol/phosphate buffer.
Series [18] deals with T1, Translocator protein. Description: Displacement of [3H]-PK11195 from TSPO receptor in human Leucocyte incubated for 30 mins by beta-counter analysis. The class given is cell-based.

T2 sequence (P16257 whole entry, looked up): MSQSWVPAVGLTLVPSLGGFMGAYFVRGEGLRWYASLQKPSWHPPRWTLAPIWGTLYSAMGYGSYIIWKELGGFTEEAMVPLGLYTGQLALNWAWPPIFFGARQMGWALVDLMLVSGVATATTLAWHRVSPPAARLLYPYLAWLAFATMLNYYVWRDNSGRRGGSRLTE
T1 sequence (P30536 whole entry): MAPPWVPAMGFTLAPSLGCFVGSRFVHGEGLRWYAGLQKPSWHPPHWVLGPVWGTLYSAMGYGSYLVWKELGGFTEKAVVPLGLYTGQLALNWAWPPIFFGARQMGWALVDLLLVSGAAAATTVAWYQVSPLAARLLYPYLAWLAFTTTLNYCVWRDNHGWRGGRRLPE

For `CC(=O)N(C)c1ccccc1Oc1ccccc1`, the IC50 – broadly, the concentration at which inhibition is half-maximal – on Translocator protein [1] was 6.7 nM.

As to `CCC(C)N(C)C(=O)c1cc2ccccc2c(-c2ccccc2Cl)n1` (configuration not stated) [PK-11195], the Ki – broadly, a measure of affinity in units of concentration, obtained from inhibition or displacement – in series [2] was more than 100000 nM.

On to `CCCN(CCC)C(=O)Cc1c(-c2ccc(OC)cc2)nc2ccc(Cl)cn12`, for which the results for the Ki (at Translocator protein [3]; in [2]) were 0.5 nM and 105 nM, respectively. Moreover, at Translocator protein [4], the EC50 – broadly, the concentration at which the effect is half-maximal – was 15900 nM. The Ratio Ki in series [5] amounted to 210.

On to `COc1ccc(OC)c(CN(C(C)=O)c2cc(F)ccc2Oc2ccccc2)c1`, for which the IC50 on Translocator protein [1] was 0.28 nM; in series [6] it was more than 1000 nM. The molecule also yielded an Activity at Translocator protein [7] of 80%.

Consider `COc1ccc(-c2ccc3oc(=O)n(CC(=O)N(C)c4ccccc4)c3c2)cc1`, for which the logD (commonly the decadic logarithm of the distribution of all forms, ionised or not, between an organic phase and buffer at a given pH) in [8] was found to be 3.5.

`CCN(CC)C(=O)Cn1c(=O)n2cc(-c3ccccc3)nc2c2ccccc21`: the IC50 at Translocator protein [9] was 400 nM; on Translocator protein [10] it was 80 nM; in series [11], more than 10000 nM.

As to `CCCN(CCC)C(=O)Cc1c(-c2ccc(O)cc2)nc2ccc(Cl)cn12`, the Ki at Translocator protein [3] was 22.2 nM; in [2], 1.05 nM. Moreover, at Translocator protein [4], the EC50 came to 6990 nM. In addition, the Ratio Ki in [5] amounted to 21.1.

`CCCN(CCC)C(=O)Cc1c(-c2ccc(OCC(=O)O)cc2)nc2c(Cl)cc(Cl)cn12`: the EC50 on Translocator protein [4] is 39000 nM.

`CCN(CC)C(=O)Cn1c(=O)n2nc(-c3ccccc3)nc2c2ccccc21` yielded a concentration for half-maximal inhibition (IC50) at Translocator protein [9] of 1700 nM.

As to `COC(=O)C(Cc1c[nH]c2ccccc12)NC(=O)Cn1c(=O)oc2ccc(Br)cc21` (configuration not stated), the remaining at 24 h in series [12] was more than 91%; in [13] it was more than 94%.

Consider `CCCN(CCC)C(=O)Cc1c(-c2ccc(OC)cc2)nc2c(Cl)cc(Cl)cn12`, for which the EC50 at Translocator protein [4] amounted to 571 nM.

For the molecule `CCCN(CCC)C(=O)Cc1c(-c2ccc(Cl)cc2)nc2c(Cl)cc(Cl)cn12` [ALPDEM], the EC50 at Translocator protein [4] is 337 nM.

On to `CN1C(=O)CN=C(c2ccccc2F)c2cc([N+](=O)[O-])ccc21` [FLUNITRAZEPAM], for which, in series [2], the Ki was determined as 5.11 nM. That is a single-digit nanomolar value.

`CN(C(=O)Cn1c(=O)oc2ccc(-c3cccc([N+](=O)[O-])c3)cc21)c1ccccc1O[11CH3]` came in with a logD in [8] of 2.08. The same molecule gave a Ki at Translocator protein [14] of 4.9 nM.

Take `Oc1nc2ccccc2c2nc(-c3ccccc3)nn12`: the figures for the IC50 at Translocator protein [9] and on Translocator protein [10] were 9800 nM and 15 nM, respectively.

Regarding `CCCN(CCC)C(=O)Cc1c(-c2ccc(Cl)cc2)nc2c(NCC(=O)O)cccn12`, the EC50 at Translocator protein [4] amounted to 21200 nM.

For the molecule `CN(C(=O)Cn1c(=O)oc2ccc(-c3ccc(OCC[18F])cc3)cc21)c1ccccc1`, the logD at 0.05 h in series [15] turned out to be 3.43. On Translocator protein [16], this molecule had a Ki of 6.6 nM.

Consider `CCCN(CCC)C(=O)Cn1c(=O)n2cc(-c3ccccc3)nc2c2ccccc21`, for which the IC50 at Translocator protein [9] is 11 nM; on Translocator protein [10] it was 12 nM; in series [11] it was more than 10000 nM.

On to `CCN(CC)C(=O)Cn1c(=O)n2cc(-c3ccc(OC)c(OC)c3)nc2c2ccccc21`, for which the IC50 on Translocator protein [9] was 150 nM; on Translocator protein [10] it was 500 nM; in series [11] it was more than 10000 nM.

With `CCCN(CCC)C(=O)Cc1c(-c2ccc(Cl)cc2)nc2ccc(Cl)cn12` [ALPIDEM], the Ki is 7.9 nM at Translocator protein [3] and 1 nM in [2]. The Ratio Ki in series [5] was determined as 3.29.

On to `CC(=O)N(Cc1ccccc1OC[18F])c1cnccc1Oc1ccccc1`, for which, in series [17], the logD at 0.05 h came to 2.85.

In series [6], `CC(=O)N(Cc1ccccc1OC(C)C)c1ccc(Cl)cc1Oc1ccccc1` displayed an IC50 of more than 1000 nM.

`CC(=O)N(Cc1ccccc1O[11CH3])c1cnccc1Oc1ccccc1`: the logD at 0.05 h in series [17] is 2.82. The IC50 on Translocator protein [18] is 8.07 nM.

With `CCN(CC)C(=O)Cn1c(=O)n2c(C)c(-c3ccccc3)nc2c2ccccc21`, the IC50 is 29 nM at Translocator protein [9], 9 nM at Translocator protein [10] and more than 10000 nM in series [11].
